Results: PubChem BioAssay AID652216 (The Scripps Research Institute Molecular Screening Center, 2013)
Activity calls are given as the source filed them.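 How the source made its calls: active means IC50 below 10 µM against protein phosphatase 1 in the dose response test; inactive means IC50 of 10 µM or more.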

What follows are molecules tested against Serine/threonine-protein phosphatase PP1-alpha catalytic subunit (Homo sapiens) (UniProt P62136) (assay: PP1 inhibitor potency with OMFP substrate, dose response, biochemical, fluorescence, set 4 (AID 652216)). Conditions: purified PP1alpha, OMFP dephosphorylation fluorescence.
Chain of Serine/threonine-protein phosphatase PP1-alpha catalytic subunit (Homo sapiens) (P62136 whole entry, looked up): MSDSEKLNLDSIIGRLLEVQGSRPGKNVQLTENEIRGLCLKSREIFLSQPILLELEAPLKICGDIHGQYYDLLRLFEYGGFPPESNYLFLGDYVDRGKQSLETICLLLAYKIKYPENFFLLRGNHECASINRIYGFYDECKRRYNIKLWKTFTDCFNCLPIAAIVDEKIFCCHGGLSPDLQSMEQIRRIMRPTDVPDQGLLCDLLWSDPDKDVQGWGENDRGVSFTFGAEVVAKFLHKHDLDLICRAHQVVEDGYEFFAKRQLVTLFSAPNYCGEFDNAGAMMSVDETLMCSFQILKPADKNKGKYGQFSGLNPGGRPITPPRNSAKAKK

`CN1CCN(C(c2cccc(F)n2)c2ccc3cccnc3c2O)CC1` (centres undefined) was tested, and the IC50 was “inactive”.

First: CN1CCN([C@H](c2ccc(C(F)(F)F)cn2)c2ccc3cccnc3c2O)CC1
Second: CN1CCN(C(c2ccc(C(F)(F)F)cn2)c2ccc3cccnc3c2O)CC1 (centres undefined)
The IC50 of the first is 2-fold higher: 8.84 µM for the first, 4.51 µM for the second. The second is the more potent here.

In the case of `CN1CCN([C@@H](c2ccc(C(F)(F)F)cn2)c2ccc3cccnc3c2O)CC1`, the IC50 is reported as 8.39 µM.
